Literature values as cited in article PMC9603901, “Therapeutic Potential of Antimicrobial Peptide PN5 against Multidrug-Resistant E. coli and Anti-Inflammatory Activity in a Septic Mouse Model” (Microbiology Spectrum, 2022).
In brackets after ≈: the same amount, converted by molar mass.

Legend:
Set-up in all cases: method as in Asan hospital; key to susceptibility category: S: susceptible; R: resistant; I: intermediate
[1] = test system: MDR E. coli ASEC 8; conditions: ref Asan hospital, cited from earlier work; for MIC: ASEC 8 (ESBL), resistance information of clinical isolate; for susceptibility category: ASEC 8
[2] = test system: MDR E. coli ASEC 12; conditions: ref Asan hospital, cited from earlier work; for MIC: ASEC 12 (AmpC), resistance information of clinical isolate; for susceptibility category: ASEC 12
[3] = test system: MDR E. coli ASEC 9; conditions: ref Asan hospital, cited from earlier work; for MIC: ASEC 9 (ESBL), resistance information of clinical isolate; for susceptibility category: ASEC 9
[4] = test system: MDR E. coli ASEC 5; conditions: ref Asan hospital, cited from earlier work; for MIC: ASEC 5 (ESBL), resistance information of clinical isolate; for susceptibility category: ASEC 5
[5] = test system: MDR E. coli ASEC 15; conditions: ref Asan hospital, cited from earlier work; for MIC: ASEC 15 (AmpC), resistance information of clinical isolate; for susceptibility category: ASEC 15
[6] = test system: MDR E. coli ASEC 7; conditions: ref Asan hospital, cited from earlier work; for MIC: ASEC 7 (ESBL), resistance information of clinical isolate; for susceptibility category: ASEC 7
[7] = test system: MDR E. coli ASEC 4; conditions: ref Asan hospital, cited from earlier work; for MIC: ASEC 4 (ESBL), resistance information of clinical isolate; for susceptibility category: ASEC 4
[8] = test system: MDR E. coli ASEC 17; conditions: ref Asan hospital, cited from earlier work; for MIC: ASEC 17 (AmpC), resistance information of clinical isolate; for susceptibility category: ASEC 17
[9] = test system: MDR E. coli ASEC 19; conditions: ref Asan hospital, cited from earlier work; for MIC: ASEC 19 (AmpC), resistance information of clinical isolate; for susceptibility category: ASEC 19
[10] = test system: MDR E. coli ASEC 3; conditions: ref Asan hospital, cited from earlier work; for MIC: ASEC 3 (NDM-5), resistance information of clinical isolate; for susceptibility category: ASEC 3
[11] = test system: MDR E. coli ASEC 2; conditions: ref Asan hospital, cited from earlier work; for MIC: ASEC 2 (NDM-7), resistance information of clinical isolate; for susceptibility category: ASEC 2
[12] = test system: MDR E. coli ASEC 18; conditions: ref Asan hospital, cited from earlier work; for MIC: ASEC 18 (AmpC), resistance information of clinical isolate; for susceptibility category: ASEC 18
[13] = test system: MDR E. coli ASEC 14; conditions: ref Asan hospital, cited from earlier work; for MIC: ASEC 14 (AmpC), resistance information of clinical isolate; for susceptibility category: ASEC 14
[14] = test system: MDR E. coli ASEC 1; conditions: ref Asan hospital, cited from earlier work; for MIC: ASEC 1 (carbapenemase NDM-1), resistance information of clinical isolate; for susceptibility category: ASEC 1
[15] = test system: MDR E. coli ASEC 6; conditions: ref Asan hospital, cited from earlier work; for MIC: ASEC 6 (ESBL), resistance information of clinical isolate; for susceptibility category: ASEC 6
[16] = test system: MDR E. coli ASEC 11; conditions: ref Asan hospital, cited from earlier work; for MIC: ASEC 11 (ESBL), resistance information of clinical isolate; for susceptibility category: ASEC 11
[17] = test system: MDR E. coli ASEC 16; conditions: ref Asan hospital, cited from earlier work; for MIC: ASEC 16 (AmpC), resistance information of clinical isolate; for susceptibility category: ASEC 16
[18] = test system: MDR E. coli ASEC 13; conditions: ref Asan hospital, cited from earlier work; for MIC: ASEC 13 (AmpC), resistance information of clinical isolate; for susceptibility category: ASEC 13
[19] = test system: MDR E. coli ASEC 10; conditions: ref Asan hospital, cited from earlier work; for MIC: ASEC 10 (ESBL), resistance information of clinical isolate; for susceptibility category: ASEC 10

Compound | MIC [1] | susceptibility category [1] | MIC [2] [µg/mL] | susceptibility category [2] | MIC [3] | susceptibility category [3] | MIC [4] [µg/mL] | susceptibility category [4] | MIC [5] | susceptibility category [5] | MIC [6] | susceptibility category [6] | MIC [7] [µg/mL] | susceptibility category [7] | MIC [14] | susceptibility category [14] | MIC [15] [µg/mL] | susceptibility category [15] | MIC [18] [µg/mL] | susceptibility category [18] | further results
CO[C@@]1(NC(=O)Cc2cccs2)C(=O)N2C(C(=O)O)=C(COC(N)=O)CS[C@@H]21 [Cefoxitin] | <= 8 μg mL-1 | S | > 16 | R | 16 µg/mL (≈ 37.4 µM) | I | > 16 | R | > 16 µg/mL | R | <= 8 μg mL-1 | S | > 16 | R | > 16 µg/mL | R | > 16 | R | > 16 | R | MIC [8]: > 16 µg/mL; susceptibility category [8]: R; MIC [9]: > 16 µg/mL; susceptibility category [9]: R; MIC [10]: > 16 µg/mL; susceptibility category [10]: R; MIC [11]: > 16 µg/mL; susceptibility category [11]: R; MIC [12]: > 16 µg/mL; susceptibility category [12]: R; MIC [13]: > 16 µg/mL; susceptibility category [13]: R; MIC [16]: <= 8 μg mL-1; susceptibility category [16]: S; MIC [17]: > 16 µg/mL; susceptibility category [17]: R; MIC [19]: <= 8 μg mL-1; susceptibility category [19]: S
CO/N=C(\C(=O)N[C@@H]1C(=O)N2C(C(=O)O)=C(CSc3nc(=O)c(=O)[nH]n3C)CS[C@H]12)c1csc(N)n1 [Ceftriaxone] |  |  | > 32 | R |  |  | > 32 | R |  |  |  |  | > 32 | R | > 32 µg/mL | R | > 32 | R | > 32 | R | 
C[C@@H](O)[C@H]1C(=O)N2C(C(=O)O)=C(SCCN=CN)C[C@H]12 [Imipenem] | <= 1 μg mL-1 | S | > 8 | R | <= 1 μg mL-1 | S | > 8 | R | <= 1 μg mL-1 | S | <= 1 μg mL-1 | S | > 8 | R | <= 4 μg mL-1 | R | > 8 | R | > 8 | R | MIC [8]: <= 1 μg mL-1; susceptibility category [8]: S; MIC [9]: <= 1 μg mL-1; susceptibility category [9]: S; MIC [10]: > 8 µg/mL; susceptibility category [10]: R; MIC [11]: 8 µg/mL (≈ 26.7 µM); susceptibility category [11]: R; MIC [12]: <= 1 μg mL-1; susceptibility category [12]: S; MIC [13]: 8 µg/mL (≈ 26.7 µM); susceptibility category [13]: R; MIC [16]: <= 1 μg mL-1; susceptibility category [16]: S; MIC [17]: <= 1 μg mL-1; susceptibility category [17]: S; MIC [19]: <= 1 μg mL-1; susceptibility category [19]: S
